# Assay results as given in ChEMBL document CHEMBL1201862, “PubChem BioAssay data set” (2004).
# Where “and” joins values, the source holds several entries; their conditions need not be identical. Equal entries are not always repeated.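 Each compound was tested at five concentrations against cells in 96-well plates for 48 hours. GI50 = concentration required for 50% inhibition of growth.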 Calls of active or inactive are those of the source. Cut-off read from the data, not from the text of the source: active = GI50 up to about 1.1 µM and inactive = higher.
# Legend:
# Assay in all cases: inhibition of tumour cell growth, NCI panel, 48 h
# [1] = test system: SK-OV-3
# [2] = test system: COLO 205
# [3] = test system: MDA-MB-435
# [4] = test system: CCRF-CEM
# [5] = test system: SK-MEL-2
# [6] = test system: T47D
# [7] = test system: SK-MEL-28
# [8] = test system: SNB-75
# [9] = test system: NCI/ADR-RES
# [10] = test system: IGROV-1
# [11] = test system: U-251
# [12] = test system: CAKI-1
# [13] = test system: SW-620
# [14] = test system: ACHN
# [15] = test system: NCI-H23
# [16] = test system: 786-0
# [17] = test system: MCF7
# [18] = test system: K562
# [19] = test system: A549
# [20] = test system: RPMI-8226
# [21] = test system: OVCAR-4
# [22] = test system: RXF 393
# [23] = test system: SK-MEL-5
# [24] = test system: M14
# [25] = test system: NCI-H460
# [26] = test system: OVCAR-5
# [27] = test system: SF-268
# [28] = test system: HOP-62
# [29] = test system: Malme-3M
# [30] = test system: UACC-62
# [31] = test system: HL-60
# [32] = test system: SR
# [33] = test system: MOLT-4
# [34] = test system: UACC-257
# [35] = test system: HCC 2998
# [36] = test system: BT-549
# [37] = test system: EKVX
# [38] = test system: SN12C
# [39] = test system: HOP-92
# [40] = test system: TK-10
# [41] = test system: HT-29
# [42] = test system: MDA-N
# [43] = test system: MDA-MB-231
# [44] = test system: HCT-15
# [45] = test system: SF-295
# [46] = test system: KM12
# [47] = test system: NCI-H522
# [48] = test system: NCI-H226
# [49] = test system: DU-145
# [50] = test system: A498
# [51] = test system: UO-31
# [52] = test system: LOX IMVI
# [53] = test system: PC-3
# [54] = test system: SNB-19
# [55] = test system: OVCAR-3
# [56] = test system: SF-539
# [57] = test system: HCT-116
# [58] = test system: OVCAR-8
smiles,measurement,setting,value
O=C1c2ccccc2-c2nnc(-c3ccccc3)cc21,GI50,[1],> 10 µM (inactive)
same,GI50,[2],> 10 µM (inactive)
same,GI50,[3],> 10 µM (inactive)
same,GI50,[4],3.25 µM (inactive)
same,GI50,[5],> 10 µM (inactive)
same,GI50,[6],4.48 µM (inactive)
same,GI50,[7],> 10 µM (inactive)
same,GI50,[8],> 10 µM (inactive)
same,GI50,[9],> 10 µM (inactive)
same,GI50,[10],> 10 µM (inactive)
same,GI50,[11],> 10 µM (inactive)
same,GI50,[12],> 10 µM (inactive)
same,GI50,[13],7.6 µM (inactive)
same,GI50,[14],> 10 µM (inactive)
same,GI50,[15],> 10 µM (inactive)
same,GI50,[16],> 10 µM (inactive)
same,GI50,[17],3.37 µM (inactive)
same,GI50,[18],3.61 µM (inactive)
same,GI50,[19],> 10 µM (inactive)
same,GI50,[20],> 10 µM (inactive)
same,GI50,[21],> 10 µM (inactive)
same,GI50,[22],> 10 µM (inactive)
same,GI50,[23],> 10 µM (inactive)
same,GI50,[24],> 10 µM (inactive)
same,GI50,[25],> 10 µM (inactive)
same,GI50,[26],> 10 µM (inactive)
same,GI50,[27],> 10 µM (inactive)
same,GI50,[28],> 10 µM (inactive)
same,GI50,[29],> 10 µM (inactive)
same,GI50,[30],> 10 µM (inactive)
same,GI50,[31],5.05 µM (inactive)
same,GI50,[32],3.83 µM (inactive)
same,GI50,[33],3.01 µM (inactive)
COC(=O)CCc1cc(OC)c2c(c1)C(C(=O)OC)C(c1ccc(OC)c(OC)c1)O2 (centres undefined),GI50,[34],> 100 µM (inactive)
same,GI50,[35],60.5 µM (inactive)
same,GI50,[36],22.6 µM (inactive) and 42.4 µM (inactive)
same,GI50,[6],24.8 µM (inactive)
same,GI50,[8],10.6 µM (inactive)
same,GI50,[37],> 52.5 µM (inactive)
same,GI50,[38],62.4 µM (inactive)
same,GI50,[39],> 95.7 µM (inactive)
same,GI50,[14],59.2 µM (inactive)
same,GI50,[15],> 100 µM (inactive) and > 71 µM (inactive)
same,GI50,[40],> 100 µM (inactive) and > 91.4 µM (inactive)
same,GI50,[21],> 100 µM (inactive) and 58.5 µM (inactive)
same,GI50,[22],34.9 µM (inactive)
same,GI50,[41],5.32 µM (inactive)
same,GI50,[26],> 79.1 µM (inactive)
O=C1O/C(=C/c2ccccc2)C(c2ccccc2)=C1O,GI50,[42],34 µM (inactive)
same,GI50,[34],> 100 µM (inactive)
same,GI50,[35],41.3 µM (inactive)
same,GI50,[43],38.1 µM (inactive)
same,GI50,[1],61.9 µM (inactive)
same,GI50,[2],> 100 µM (inactive)
same,GI50,[3],29.8 µM (inactive)
same,GI50,[4],29.7 µM (inactive)
same,GI50,[5],17.5 µM (inactive)
same,GI50,[6],27.2 µM (inactive)
same,GI50,[7],35.5 µM (inactive)
same,GI50,[8],67.3 µM (inactive)
same,GI50,[44],34.4 µM
same,GI50,[45],36.3 µM (inactive)
same,GI50,[46],59.8 µM (inactive)
same,GI50,[9],34.7 µM (inactive)
same,GI50,[47],65 µM (inactive)
same,GI50,[37],39.2 µM (inactive)
same,GI50,[10],40.6 µM (inactive)
same,GI50,[11],31.3 µM (inactive)
same,GI50,[38],33 µM (inactive)
same,GI50,[39],61.5 µM (inactive)
same,GI50,[48],> 100 µM (inactive)
same,GI50,[12],47.3 µM (inactive)
same,GI50,[13],43.7 µM (inactive)
same,GI50,[14],74 µM (inactive)
same,GI50,[15],19 µM (inactive)
same,GI50,[16],46.7 µM (inactive)
same,GI50,[49],26 µM (inactive)
same,GI50,[50],23.1 µM (inactive)
same,GI50,[51],27 µM (inactive)
same,GI50,[17],34.4 µM (inactive)
same,GI50,[18],41.1 µM (inactive)
same,GI50,[19],33.3 µM (inactive)
same,GI50,[52],36.6 µM (inactive)
same,GI50,[20],28 µM (inactive)
same,GI50,[40],75 µM (inactive)
same,GI50,[21],55.3 µM (inactive)
same,GI50,[53],29.2 µM (inactive)
same,GI50,[22],24.3 µM (inactive)
same,GI50,[54],47.5 µM (inactive)
same,GI50,[55],19.8 µM (inactive)
same,GI50,[56],37.9 µM (inactive)
same,GI50,[41],> 100 µM (inactive)
same,GI50,[57],36.9 µM (inactive)
same,GI50,[23],34.4 µM (inactive)
same,GI50,[24],59.8 µM (inactive)
same,GI50,[26],> 100 µM (inactive)
same,GI50,[28],29.4 µM (inactive)
same,GI50,[29],60.7 µM (inactive)
same,GI50,[58],60.1 µM (inactive)
same,GI50,[30],18.5 µM (inactive)
same,GI50,[31],20.1 µM (inactive)
same,GI50,[33],53.3 µM (inactive)
Cc1cc(NCCCCCCNc2cc(C)nc3ccc(N)cc23)c2cc(N)ccc2n1,GI50,[11],62.8 µM (inactive)
same,GI50,[54],58.5 µM (inactive)
